Measurements taken from ChEMBL document CHEMBL1914304 (J Med Chem, 2011).

Key:
HEK293 = assay: Cytotoxicity against human HEK293 cells after 72 hrs by luminescence assay; format: cell-based; conditions: hek293, 72 h
HepG2 = assay: Cytotoxicity against human HepG2 cells after 72 hrs by luminescence assay; format: cell-based; conditions: hepg2, 72 h
Raji = assay: Cytotoxicity against human Raji cells after 72 hrs by luminescence assay; format: cell-based
[1] = Selectivity ratio of EC50 for human HepG2 cells to EC50 for Plasmodium falciparum
BJ = assay: Cytotoxicity against human BJ cells after 72 hrs by luminescence assay; format: cell-based

| Compound | Activity (HEK293) | Activity (HepG2) | Activity (Raji) | selectivity ratio [1] | Activity (BJ) |
| --- | --- | --- | --- | --- | --- |
| Cl.O=C(CCc1ccccc1)c1cc(F)ccc1OCC(O)CN1CCN(Cc2ccccc2)CC1 (racemic) | Non-toxic | Non-toxic | Non-toxic | > 10 | Non-toxic |
| Cc1ccccc1N1CCN(CC(O)COc2ccc(F)cc2C(=O)CCc2ccccc2)CC1.Cl (racemic) | Non-toxic | Non-toxic | Non-toxic | > 10 | Non-toxic |
| Cc1cccc(N2CCN(CC(O)COc3ccc(F)cc3C(=O)CCc3ccccc3)CC2)c1.Cl (racemic) | Non-toxic | Non-toxic | Non-toxic | > 10 | Non-toxic |
| Cc1ccc(N2CCN(CC(O)COc3ccc(F)cc3C(=O)CCc3ccccc3)CC2)cc1.Cl (racemic) | Non-toxic | Non-toxic | Non-toxic | > 10 | Non-toxic |
| COc1ccccc1N1CCN(CC(O)COc2ccc(F)cc2C(=O)CCc2ccccc2)CC1.Cl (racemic) | Non-toxic | Non-toxic | Non-toxic | > 10 | Non-toxic |
| COc1cccc(N2CCN(CC(O)COc3ccc(F)cc3C(=O)CCc3ccccc3)CC2)c1.Cl (racemic) | Non-toxic | Non-toxic | Non-toxic | > 10 | Non-toxic |
| COc1ccc(N2CCN(CC(O)COc3ccc(F)cc3C(=O)CCc3ccccc3)CC2)cc1.Cl (racemic) | Non-toxic | Non-toxic | Non-toxic | > 10 | Non-toxic |
| Cl.O=C(CCc1ccccc1)c1cc(F)ccc1OCC(O)CN1CCN(c2ccccc2Cl)CC1 (racemic) | Non-toxic | Non-toxic | Non-toxic | > 10 | Non-toxic |
| Cl.O=C(CCc1ccccc1)c1cc(F)ccc1OCC(O)CN1CCN(c2ccc(Cl)c(Cl)c2)CC1 (racemic) | Non-toxic | Non-toxic | Non-toxic | > 10 | Non-toxic |
| Cl.O=C(CCc1ccccc1)c1cc(F)ccc1OCC(O)CN1CCN(c2ccccc2F)CC1 (racemic) | Non-toxic | Non-toxic | Non-toxic | > 10 | Non-toxic |
| Cl.O=C(CCc1ccccc1)c1cc(F)ccc1OCC(O)CN1CCN(c2ccc(F)cc2)CC1 (racemic) | Non-toxic | Non-toxic | Non-toxic | > 10 | Non-toxic |
| Cl.O=C(CCc1ccccc1)c1cc(F)ccc1OCC(O)CN1CCN(c2ccc([N+](=O)[O-])cc2)CC1 (racemic) | Non-toxic | Non-toxic | Non-toxic | > 10 | Non-toxic |
| Cl.Nc1ccc(N2CCN(CC(O)COc3ccc(F)cc3C(=O)CCc3ccccc3)CC2)cc1 (racemic) | Non-toxic | Non-toxic | Non-toxic | > 10 | Non-toxic |
| Cl.O=C(CCc1ccccc1)c1cc(F)ccc1OCC(O)CN1CCN(c2ccc(O)cc2)CC1 (racemic) | Non-toxic | Non-toxic | Non-toxic | > 10 | Non-toxic |
| Cl.O=C(CCc1ccccc1)c1cc(F)ccc1OCC(O)CN1CCN(c2ccc(C(F)(F)F)cc2)CC1 (racemic) | Non-toxic | Non-toxic | Non-toxic | > 10 | Non-toxic |
| Cl.O=C(CCc1ccccc1)c1cc(F)ccc1OCC(O)CN1CCN(C(=O)c2ccccc2)CC1 (racemic) | Non-toxic | Non-toxic | Non-toxic | > 10 | Non-toxic |
| CN1CCN(CC(O)COc2ccc(F)cc2C(=O)CCc2ccccc2)CC1.Cl (racemic) | Non-toxic | Non-toxic | Non-toxic | > 10 | Non-toxic |
| CCN1CCN(CC(O)COc2ccc(F)cc2C(=O)CCc2ccccc2)CC1.Cl (racemic) | Non-toxic | Non-toxic | Non-toxic | > 10 | Non-toxic |
| Cl.O=C(CCc1ccc(F)cc1)c1cc(F)ccc1OCC(O)CN1CCCCC1 (racemic) | Non-toxic | Non-toxic | Non-toxic | > 10 | Non-toxic |

| Compound | Activity (HEK293) | Activity (HepG2) | Activity (Raji) | selectivity ratio [1] | Activity (BJ) |
| --- | --- | --- | --- | --- | --- |
| Cl.O=C(CCc1ccc(F)cc1)c1cc(F)ccc1OCC(O)CN1CCC(c2ccccc2)CC1 (racemic) | Non-toxic | Non-toxic | Non-toxic | > 10 | Non-toxic |
| Cl.O=C(CCc1ccc(F)cc1)c1cc(F)ccc1OCC(O)CN1CCC(Cc2ccccc2)CC1 (racemic) | Non-toxic | Non-toxic | Non-toxic | > 10 | Non-toxic |
| Cl.O=C(CCc1ccc(F)cc1)c1cc(F)ccc1OCC(O)CN1CCC(c2ccc(Cl)cc2)CC1 (racemic) | Non-toxic | Non-toxic | Non-toxic | > 10 | Non-toxic |
| Cl.O=C(CCc1ccc(F)cc1)c1cc(F)ccc1OCC(O)CN1CCC(O)CC1 (racemic) | Non-toxic | Non-toxic | Non-toxic | > 10 | Non-toxic |
| Cl.O=C(CCc1ccc(F)cc1)c1cc(F)ccc1OCC(O)CN1CCC(O)(Cc2ccccc2)CC1 (racemic) | Non-toxic | Non-toxic | Non-toxic | > 10 | Non-toxic |
| Cl.O=C(CCc1ccc(F)cc1)c1cc(F)ccc1OCC(O)CN1CCN(c2ccccc2)CC1 (racemic) | Non-toxic | Non-toxic | Non-toxic | > 10 | Non-toxic |
| Cl.O=C(CCc1ccc(F)cc1)c1cc(F)ccc1OCC(O)CN1CCN(Cc2ccccc2)CC1 (racemic) | Non-toxic | Non-toxic | Non-toxic | > 10 | Non-toxic |
| Cc1ccccc1N1CCN(CC(O)COc2ccc(F)cc2C(=O)CCc2ccc(F)cc2)CC1.Cl (racemic) | Non-toxic | Non-toxic | Non-toxic | > 10 | Non-toxic |
| Cc1cccc(N2CCN(CC(O)COc3ccc(F)cc3C(=O)CCc3ccc(F)cc3)CC2)c1.Cl (racemic) | Non-toxic | Non-toxic | Non-toxic | > 10 | Non-toxic |
| Cc1ccc(N2CCN(CC(O)COc3ccc(F)cc3C(=O)CCc3ccc(F)cc3)CC2)cc1.Cl (racemic) | Non-toxic | Non-toxic | Non-toxic | > 10 | Non-toxic |
| COc1ccccc1N1CCN(CC(O)COc2ccc(F)cc2C(=O)CCc2ccc(F)cc2)CC1.Cl (racemic) | Non-toxic | Non-toxic | Non-toxic | > 10 | Non-toxic |
| COc1cccc(N2CCN(CC(O)COc3ccc(F)cc3C(=O)CCc3ccc(F)cc3)CC2)c1.Cl (racemic) | Non-toxic | Non-toxic | Non-toxic | > 10 | Non-toxic |
| COc1ccc(N2CCN(CC(O)COc3ccc(F)cc3C(=O)CCc3ccc(F)cc3)CC2)cc1.Cl (racemic) | Non-toxic | Non-toxic | Non-toxic | > 10 | Non-toxic |
| Cl.O=C(CCc1ccc(F)cc1)c1cc(F)ccc1OCC(O)CN1CCN(c2ccccc2Cl)CC1 (racemic) | Non-toxic | Non-toxic | Non-toxic | > 10 | Non-toxic |
| Cl.O=C(CCc1ccc(F)cc1)c1cc(F)ccc1OCC(O)CN1CCN(c2ccc(Cl)cc2)CC1 (racemic) | Non-toxic | Non-toxic | Non-toxic | > 10 | Non-toxic |
| Cl.O=C(CCc1ccc(F)cc1)c1cc(F)ccc1OCC(O)CN1CCN(c2ccc(Cl)c(Cl)c2)CC1 (racemic) | Non-toxic | Non-toxic | Non-toxic | > 10 | Non-toxic |
| Cl.O=C(CCc1ccc(F)cc1)c1cc(F)ccc1OCC(O)CN1CCN(c2ccccc2F)CC1 (racemic) | Non-toxic | Non-toxic | Non-toxic | > 10 | Non-toxic |
| Cl.O=C(CCc1ccccc1)c1cc(F)ccc1OCC(O)CN1CC[N+]([O-])(c2ccc(Cl)cc2)CC1 (racemic) | Non-toxic | Non-toxic | Non-toxic | > 10 | Non-toxic |
